Laboratory results published in publication PMC4977564, “Inhibition of Mycobacterium tuberculosis dihydrodipicolinate synthase by alpha-ketopimelic acid and its other structural analogues” (Scientific Reports, 2016).

How the values were obtained:
Mtb-rDapA [1] = target: T1, Mtb-rDapA (Mycobacterium tuberculosis, UniProt P9WP25); assay: Size exclusion chromatography of Mtb-rDapA oligomerization
Protocol: Prior to gel filtration, the pre-packed Superdex 200 10/300 column (GE Healthcare) was pre-equilibrated with 50 mM Tris HCl pH 7.5, 150 mM NaCl and 10% glycerol. 25 μM Mtb-rDapA in 25 mM Tris/150 mM NaCl buffer was loaded in 500 μl volume. Multiple fractions of 1 ml volume were collected and each fraction runs on 12% SDS-PAGE gel electrophoresis. The ligand α-KPA in 1:5, 1:10 and 1:50 molar ratio of Mtb-rDapA was incubated with Mtb-rDapA and subjected to run as above. The chromatograms were collected by measuring absorption at 280 nm as a function of buffer volume at a flow rate of 0.3 ml/min. The column was calibrated by passing Apoferritin eluted at 10.5 ml, β-Amylase eluted at 12.5 ml, Alcohol dehydrogenase eluted at 13 ml, BSA eluted at 14.5 ml, carbonic anhydrase eluted at 16.9 ml, and cytochrome C eluted at 19 ml followed by a standard curve generation.

[2] = target: T2, recombinant Mtb-DapA (Mtb-rDapA) (Mycobacterium tuberculosis, UniProt P9WP25); assay: biochemical
T2 sequence (P9WP25 whole entry, looked up): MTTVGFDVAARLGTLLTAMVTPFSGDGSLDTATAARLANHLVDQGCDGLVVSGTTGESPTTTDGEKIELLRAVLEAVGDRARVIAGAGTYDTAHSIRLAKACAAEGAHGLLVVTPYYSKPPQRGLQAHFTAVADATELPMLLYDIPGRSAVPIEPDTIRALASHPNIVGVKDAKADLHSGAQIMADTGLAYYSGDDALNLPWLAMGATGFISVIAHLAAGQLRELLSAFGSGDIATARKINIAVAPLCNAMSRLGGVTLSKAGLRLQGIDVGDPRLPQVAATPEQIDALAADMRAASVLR

Mtb-rDapA [3] = target: T1, Mtb-rDapA; assay: LC-MS/MRM quantitation of THDP product of the coupled assay; format: biochemical; settings: MRM, 1 mM KPA (saturating concentration)
Protocol: The activity of Mtb-rDapA and Mtb-rDapB in catalyzing formation of THDP was confirmed by LC/MS analysis. A reaction mixture contained 1 μg of Mtb-rDapA, 30 μg of Mtb-rDapB, 10 mM pyruvate, 1 mM ASA, 0.16 mM NADPH and 50 mM sodium phosphate buffer pH 7.4 run at 37 °C for 5 min using UV-Vis spectrophotometer for THDP formation. Mtb-rDapA and Mtb-rDapB were then inactivated at 55 °C for 5 min to preserve integrity of reaction products and reaction mixture passed through 10 kDa cutoff filter unit (Millipore, USA) to filter the proteins and centrifuged at 6800 × g. The flow-through containing reaction products was used in LC/MS analysis. In order to observe the effect of inhibitor on THDP formation we added α-KPA in the assay mixture. The sample was subjected to analysis on a LC/ESI-MS (Quattro Micro API, Waters) coupled to a UPLC inlet. The flow through was loaded onto an Acquity UPLC BEH shield RP18, […], 2.1 100 mm column comprising a mobile phase of buffer A (water, 0.1% formic acid) and buffer B (acetonitrile, 0.1% formic acid) at a flow rate of 0.2 ml min^−1. […] Quantitative analysis of THDP formation was carried out by assessment of peak area in multiple reactions monitoring (MRM) mode with precursor ion 172.3 of THDP and corresponding daughter ions 125.6 and 107.5 by using above mentioned LC-MS/MS parameters.

Mtb-rDapA [4] = target: T1, Mtb-rDapA; assay: Fluorescence-based thermal shift assay; format: binding; settings: ligand 0.2 mM to 1 mM; Mtb-rDapA Tm 84.8 °C
Description: The fluorescence based thermal shift assay for screening of identified ligands, which is based on the principle that ligand binding alters thermal stability of protein. This method allows us to monitor the protein denaturation upon heating using fluorescence based dye (Sypro orange, Sigma, USA), which binds to hydrophobic part of proteins during protein denaturation and emits fluorescence at 580 nm[43]. We can monitor the changes in fluorescence and generate a thermal melting curve using real time PCR. The mid-point of the melting curve designated as the melting temperature Tm corresponding to 50% of protein being denatured.
The thermal shift assay was carried out in the LightCycler^R LC480 qPCR machine using 384 well PCR plates (Roche, USA). An assay mixture of 20 μl contained 20 μM Mtb-rDapA, 15 X Sypro Orange (Sigma), 50 mM sodium phosphate buffer pH 7.4 and ligand in the range 0.2 mM to 1 mM. The ligands and Mtb-rDapA were diluted in sodium phosphate buffer. The PCR plates were sealed with optical seal, mixed well and centrifuged after the assay mixture was added. […] The fluorescence intensity was measured by excitation at 465 nm and emission at 580 nm. Curve fitting, melting temperature calculation and report generation on the raw Fluorescence based thermal shift assay (FTS) data were performed using pre-installed analysis software provided with the instrument (Roche, USA)[44].

[5] = target: T2, recombinant Mtb-DapA (Mtb-rDapA)
CC(=O)C(=O)O = assay: purified protein, by the assay type; settings: pH 7.4; 37.0 °C

T1 sequence (P9WP25 whole entry, looked up): as above

In the case of `O=C(O)CCCCC(=O)C(=O)O` [compound 1, 2-oxoheptanedioic acid], the “effect on Mtb-rDapA oligomerization” value (Mtb-rDapA [1]; ratios of 1:5 and 1:10 of Mtb-rDapA to α-KPA) is reported as “the oligomerization was not affected”, the “effect on Mtb-rDapA oligomerization” value (Mtb-rDapA [1]; α-KPA in 50-fold molar excess, 37 °C, 5 min) is reported as “did not obtain any peak corresponding to either the tetramer or the octamer” and the Ki [2] is reported as 32.5 µM. For the same molecule, the IC50 ([2]; IC50) was 160 µM, the IC50 ([2]; IC50, pyruvate 500 μM, ASA 400 μM) was 21 µM and the IC50 ([2]; IC50 of α-KPA, pyruvate 0.17 mM, ASA 400 μM, 10 min from start) was 21 µM. For the same molecule, the IC50 ([2]; IC50 of α-KPA, pyruvate 0.17 mM, ASA 400 μM, 20 min from start) was 21 µM, the IC50 ([2]; IC50 of α-KPA, pyruvate 0.17 mM, ASA 400 μM, 30 min from start) was 21 µM and the IC50 ([2]; IC50 of α-KPA, pyruvate 0.17 mM, ASA 400 μM, 40 min from start) was 31 µM. It also gave an IC50 ([2]; IC50 of α-KPA, pyruvate 0.17 mM, ASA 400 μM, 50 min from start) of 41 µM, an IC50 ([2]; IC50 of α-KPA, pyruvate 0.17 mM, ASA 400 μM, 60 min from start) of 51 µM and an IC50 ([2]; IC50 of α-KPA, pyruvate 0.3 mM, ASA 400 μM, 10 min from start) of 21 µM. It also gave an IC50 ([2]; IC50 of α-KPA, pyruvate 0.3 mM, ASA 400 μM, 20 min from start) of 21 µM, an IC50 ([2]; IC50 of α-KPA, pyruvate 0.3 mM, ASA 400 μM, 30 min from start) of 21 µM and an IC50 ([2]; IC50 of α-KPA, pyruvate 0.3 mM, ASA 400 μM, 40 min from start) of 31 µM. The IC50 ([2]; IC50 of α-KPA, pyruvate 0.3 mM, ASA 400 μM, 50 min from start) was 41 µM, the IC50 ([2]; IC50 of α-KPA, pyruvate 0.3 mM, ASA 400 μM, 60 min from start) was 51 µM and the IC50 ([2]; IC50 of α-KPA, pyruvate 1 mM, ASA 400 μM, 10 min from start) was 21 µM. For the same molecule, the IC50 ([2]; IC50 of α-KPA, pyruvate 1 mM, ASA 400 μM, 20 min from start) was 21 µM, the IC50 ([2]; IC50 of α-KPA, pyruvate 1 mM, ASA 400 μM, 30 min from start) was 21 µM and the IC50 ([2]; IC50 of α-KPA, pyruvate 1 mM, ASA 400 μM, 40 min from start) was 31 µM. It also gave an IC50 ([2]; IC50 of α-KPA, pyruvate 1 mM, ASA 400 μM, 50 min from start) of 41 µM, an IC50 ([2]; IC50 of α-KPA, pyruvate 1 mM, ASA 400 μM, 60 min from start) of 51 µM and an IC50 ([2]; IC50 of α-KPA, pyruvate 2 mM, ASA 400 μM, 10 min from start) of 61 µM. For the same molecule, the IC50 ([2]; IC50 of α-KPA, pyruvate 2 mM, ASA 400 μM, 20 min from start) was 61 µM, the IC50 ([2]; IC50 of α-KPA, pyruvate 2 mM, ASA 400 μM, 30 min from start) was 71 µM and the IC50 ([2]; IC50 of α-KPA, pyruvate 2 mM, ASA 400 μM, 40 min from start) was 81 µM. The IC50 ([2]; IC50 of α-KPA, pyruvate 2 mM, ASA 400 μM, 50 min from start) was 91 µM, the IC50 ([2]; IC50 of α-KPA, pyruvate 2 mM, ASA 400 μM, 60 min from start) was 101 µM and the Emax ([2]; read-out: Maximal Inhibition (%)) was 88%. The inhibition at 400 µM ([2]; read-out: maximal inhibition) was 77%, the “reduction of THDP product peak (SRM peak area / relative abundance)” value (Mtb-rDapA [3]; listed as KPA) was “up to 50%” and the “reduction of THDP product peak (SRM peak area / relative abundance)” value (Mtb-rDapA [3]; listed as α-KPA) was 50%. For the same molecule, the “Tm increase of Mtb-rDapA upon binding” value (Mtb-rDapA [4]) was 1 °C and the “fold increase of IC50, pre-incubation with pyruvate vs pre-incubation with α-KPA” value [5] was roughly 8 fold.
“recombinant Mtb-DapA (Mtb-rDapA) (Mycobacterium tuberculosis H37Rv)” was tested, and the Km (CC(=O)C(=O)O) was 148.8 µM.
